From patent US7476684B2, “Compounds for the treatment of neurological, psychiatric or pain disorders” (AstraZeneca AB, priority 2005, dated 2009)

Key:
[1] = Moisture sorption / deliquescence of the salt versus relative humidity; format: physicochemical
[2] = Intrinsic dissolution rate, low-volume rotating disc method; format: physicochemical; conditions: salt made at 1 g scale from ethanol; disc 0.07 cm^2, 500 rpm, 50 mL USP Phosphate buffer pH 6.8 at 37° C.
Protocol: The salt manufactured at 1 g scale from ethanol was further investigated for its intrinsic dissolution rate and compared to the free base of 4-(5-{(1R)-1-[5-(3-chlorophenyl)isoxazol-3-yl]ethoxy}-4-methyl-4H-1,2,4-triazol-3-yl)pyridine. […] Dissolution rates of the base and salt were measured with a low-volume rotating disc method. Discs were compressed from pure compound and centrically mounted in a disc holder with an exposed area of 0.07 cm^2. The disc holder rotated at 500 rpm immersed in 50 mL USP Phosphate buffer pH 6.8 at 37° C. The compound was analyzed UV-Online by a Spectrophotometer with a flow cell and a peristaltic pump with continuous circulation.

SMILES | increased moisture sorption at relative humidity ([1]; crystalline hydrochloride salt) | intrinsic dissolution rate as compared to the free base [2] [times] | deliquesce at relative humidity ([1]; first batch, oiled salt recrystallised in ethanol) | deliquesce at relative humidity ([1]; second batch, salt manufactured from ethanol at 68° C.)
C[C@@H](Oc1nnc(-c2ccncc2)n1C)c1cc(-c2cccc(Cl)c2)on1.Cl [Example 17, 4-(5-{(1R)-1-[5-(3chlorophenyl)isoxazol-3-yl]ethoxy}-4-methyl-4H-1,2,4-triazol-3-yl)pyridine hydrochloride] | 90-95 % RH | 1000 |  | 
C[C@@H](Oc1nnc(-c2ccncc2)n1C)c1cc(-c2cccc(Cl)c2)on1.O=S(=O)(O)O [Example 18, 4-(5-{(1R)-1-[5-(3-chlorophenyl)isoxazol-3-yl]ethoxy}-4-methyl-4H-1,2,4-triazol-3-yl)pyridine sulphate] |  |  | 60-70 % relative humidity | 70-80 % RH
